Assay [1] relates to HEK293. The experiment in a line: HEK cell cytotoxicity by LDH release, dose response, cytotoxicity control for IDE activator project, fluorescence, HEK cells (AID 588440).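 Further: cytotoxicity by LDH release measuring loss of membrane integrity.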 It counts as functional, cell-based. As to conditions: Homo sapiens.
Assay [2] in a line: Luminescence Cell-Based Dose Response HTS to Identify Inhibitors of 5'UTR Stem-Loop Driven Prion Protein mRNA Translation in H4 Neuroglioblastoma Cells. [Related pubchem assays: 1827 (Project Summary), 1813 (Primary HTS)]. In kind it is functional.
Assay [3] is described as follows: inhibitors of SNCA 5'UTR-driven reporter translation, confirmation, H4 neuroglioma cells, luminescence (AID 1988). In kind it is functional, cell-based.
Assay [4] concerns the target T1, Insulin-degrading enzyme (Homo sapiens, UniProt P14735).
T1 sequence (P14735 whole entry): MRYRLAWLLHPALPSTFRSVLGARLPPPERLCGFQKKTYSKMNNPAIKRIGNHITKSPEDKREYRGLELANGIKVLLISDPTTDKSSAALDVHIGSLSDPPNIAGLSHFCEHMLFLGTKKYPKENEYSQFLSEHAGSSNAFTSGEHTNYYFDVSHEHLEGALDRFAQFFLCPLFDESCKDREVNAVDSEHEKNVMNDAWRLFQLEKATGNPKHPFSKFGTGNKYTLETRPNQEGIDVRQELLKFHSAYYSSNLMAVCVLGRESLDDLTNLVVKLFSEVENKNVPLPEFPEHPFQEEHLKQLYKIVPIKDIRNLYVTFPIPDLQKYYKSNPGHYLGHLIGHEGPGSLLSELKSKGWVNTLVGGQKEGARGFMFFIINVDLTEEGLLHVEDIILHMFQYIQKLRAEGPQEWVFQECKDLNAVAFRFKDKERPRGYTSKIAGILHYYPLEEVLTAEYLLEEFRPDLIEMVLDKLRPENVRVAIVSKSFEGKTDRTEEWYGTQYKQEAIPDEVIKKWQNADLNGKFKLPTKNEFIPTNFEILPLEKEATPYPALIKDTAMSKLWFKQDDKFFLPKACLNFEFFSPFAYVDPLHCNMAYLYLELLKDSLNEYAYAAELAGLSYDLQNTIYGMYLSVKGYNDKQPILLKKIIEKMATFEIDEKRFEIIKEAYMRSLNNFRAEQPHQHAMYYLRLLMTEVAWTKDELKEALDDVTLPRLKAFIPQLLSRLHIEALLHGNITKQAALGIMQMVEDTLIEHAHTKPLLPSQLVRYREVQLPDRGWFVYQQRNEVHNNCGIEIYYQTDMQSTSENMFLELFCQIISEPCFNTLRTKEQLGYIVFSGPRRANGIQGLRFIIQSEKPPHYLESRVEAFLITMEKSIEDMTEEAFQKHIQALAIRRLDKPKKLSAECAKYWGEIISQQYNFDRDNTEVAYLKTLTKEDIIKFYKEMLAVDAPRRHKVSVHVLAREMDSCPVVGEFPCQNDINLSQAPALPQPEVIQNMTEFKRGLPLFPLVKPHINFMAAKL
The experiment in a line: activators of recombinant IDE enzyme, dose response, counter-screen for IDE activator project, biochemical, fluorescence polarization (AID 588681).

In assay [5] the test system is HEK293. The experiment in a line: optical interference in Abeta FP readout, dose response, artefact control for IDE activator project, biochemical, fluorescence polarization (AID 588442). It counts as functional, cell-based. As to conditions: Homo sapiens.
In assay [6] the target is T1, Insulin-degrading enzyme. The experiment in a line: activators of endogenous IDE in HEK cells, dose response, cell-based, fluorescence polarization (AID 588439). It counts as functional.
Assay [7] is described as follows: cytotoxicity in HEK-293T cells, dose response, cytotoxicity control for TCR NF-kB inhibitor project, luminescence, T-cell screen hits (AID 489026).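 Further: cells exposed to compound about 14 hours before the viability readout.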 It counts as functional, cell-based.
For assay [8], the target named is T2, DNA repair and recombination protein RAD54-like (Homo sapiens, UniProt Q92698).
T2 sequence (Q92698 whole entry): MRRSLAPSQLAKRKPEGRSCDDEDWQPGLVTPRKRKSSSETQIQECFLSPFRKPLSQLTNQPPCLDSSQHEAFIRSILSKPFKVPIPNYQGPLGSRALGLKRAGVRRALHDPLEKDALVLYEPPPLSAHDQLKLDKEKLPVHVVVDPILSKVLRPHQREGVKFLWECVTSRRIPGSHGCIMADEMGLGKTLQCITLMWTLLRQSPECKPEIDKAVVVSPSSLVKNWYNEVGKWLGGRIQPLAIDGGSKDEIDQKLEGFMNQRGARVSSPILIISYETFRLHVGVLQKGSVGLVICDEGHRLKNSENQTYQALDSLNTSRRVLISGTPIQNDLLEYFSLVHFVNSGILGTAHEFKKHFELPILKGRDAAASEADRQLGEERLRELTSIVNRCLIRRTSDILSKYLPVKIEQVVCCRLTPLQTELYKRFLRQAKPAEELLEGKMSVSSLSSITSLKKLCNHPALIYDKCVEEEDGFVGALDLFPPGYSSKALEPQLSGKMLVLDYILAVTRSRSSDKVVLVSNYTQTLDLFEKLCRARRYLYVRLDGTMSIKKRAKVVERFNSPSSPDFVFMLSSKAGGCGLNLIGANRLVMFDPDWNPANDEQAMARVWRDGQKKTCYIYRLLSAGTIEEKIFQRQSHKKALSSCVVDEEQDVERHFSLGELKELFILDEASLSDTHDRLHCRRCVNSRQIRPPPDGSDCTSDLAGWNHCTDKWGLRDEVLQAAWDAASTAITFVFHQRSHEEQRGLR
The experiment in a line: inhibitors of human RAD54 branch migration, confirmation, biochemical, fluorescence, cherry-picked samples, dose series (AID 651657). It counts as functional.

In assay [9] the target is T3, Corticotropin-releasing factor receptor 2/Corticotropin-releasing factor-binding protein (Homo sapiens, UniProt P24387+Q13324).
T3 sequence (Q13324 whole entry): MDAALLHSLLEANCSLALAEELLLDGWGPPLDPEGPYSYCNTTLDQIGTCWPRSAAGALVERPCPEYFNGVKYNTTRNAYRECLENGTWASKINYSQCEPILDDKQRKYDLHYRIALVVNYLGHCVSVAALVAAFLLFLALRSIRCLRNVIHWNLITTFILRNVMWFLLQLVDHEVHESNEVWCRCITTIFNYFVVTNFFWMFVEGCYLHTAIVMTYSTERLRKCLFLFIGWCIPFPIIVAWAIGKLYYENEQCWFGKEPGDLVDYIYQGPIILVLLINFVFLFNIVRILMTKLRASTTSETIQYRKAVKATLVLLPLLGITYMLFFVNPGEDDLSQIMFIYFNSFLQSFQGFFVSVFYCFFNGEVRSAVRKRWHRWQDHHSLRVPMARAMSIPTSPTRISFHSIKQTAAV
T3 sequence (P24387 whole entry): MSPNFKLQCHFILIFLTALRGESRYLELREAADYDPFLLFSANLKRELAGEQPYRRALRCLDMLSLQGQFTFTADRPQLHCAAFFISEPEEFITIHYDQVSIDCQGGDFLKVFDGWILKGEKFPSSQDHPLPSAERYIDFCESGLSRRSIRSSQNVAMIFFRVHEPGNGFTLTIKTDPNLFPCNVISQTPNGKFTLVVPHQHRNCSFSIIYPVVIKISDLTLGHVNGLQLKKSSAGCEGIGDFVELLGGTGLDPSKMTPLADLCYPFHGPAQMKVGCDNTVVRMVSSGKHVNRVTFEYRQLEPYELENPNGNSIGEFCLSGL
In words: Dose Response confirmation of uHTS hits for small molecule antagonists of the CRF-binding protein and CRF-R2 receptor complex. It counts as functional. As to conditions: read-out: IC50_Mean.

Assay [10] is described as follows: CRF-BP/CRF-R2 complex antagonists, dose response, cell-based, uHTS hits, 384-well (AID 651639). It counts as functional, Homo sapiens. As to conditions: read-out: IC50_Mean.
The target of assay [11] is T3, Corticotropin-releasing factor receptor 2/Corticotropin-releasing factor-binding protein. The experiment in a line: activators of CRF receptor 2 with binding protein – uHTS hits, confirmation (AID 602473). In kind it is functional. The note with it: read-out: EC50_Mean.
A short description of assay [12]: HEp-2 cell cytotoxicity, dose response, cytotoxicity control for RSV inhibitor project, HTS (AID 2410). In kind it is functional. As to conditions: human respiratory syncytial virus.
Assay [13] can be described thus: intracellular Trypanosoma cruzi inhibitors in host cells – cell-based, plate reader, cherry-pick samples, set 3, dose response (AID 651818).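 Further: compounds incubated with infected cells for about four days.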 It counts as functional.
The target of a further assay is Steroidogenic factor 1 (Homo sapiens, UniProt Q13285). The experiment in a line: Counterscreen for inverse agonists of the liver receptor homolog-1 (LRH-1; NR5A2): Luminescence-based cell-based high throughput dose response assay to identify inverse agonists of the Steroidogenic Factor 1 Nuclear Receptor (SF1; NR5A1). It counts as functional.
The target of assay [14] is Nuclear receptor subfamily 5 group A member 2 (Homo sapiens, UniProt O00482). It counts as functional, cell-based.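 Further: HEK293T cells transfected with LRH-1 and a StAR promoter luciferase reporter; potency for inhibitors that lower LRH-1 driven reporter light.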
The nature of assay [15]: StAR promoter reporter inhibition counter-screen, dose response, counter-screen for LRH-1 inverse agonist project, cell-based, luminescence, luciferase reporter (AID 651969). In kind it is functional.
Assay [16] has as its target T4, Sentrin-specific protease 8 (Homo sapiens, UniProt Q96LD8).
T4 sequence (Q96LD8 whole entry): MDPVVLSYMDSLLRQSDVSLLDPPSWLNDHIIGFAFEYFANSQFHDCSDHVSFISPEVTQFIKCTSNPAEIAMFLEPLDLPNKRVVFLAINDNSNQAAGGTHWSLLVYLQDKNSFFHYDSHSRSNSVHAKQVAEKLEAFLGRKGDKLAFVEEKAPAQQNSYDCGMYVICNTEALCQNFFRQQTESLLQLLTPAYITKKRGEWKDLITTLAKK
In kind it is functional.

Assay [17] has as its target T4, Sentrin-specific protease 8. In kind it is functional. The source holds these as a separate data set.
A short description of assay [18]: microbe, parasite or virus in culture. It counts as functional. As to conditions: Mycobacterium tuberculosis.

Activity calls are given as the source filed them. A value given as a limit tells only on which side of the number the result lay.

Chain of Nuclear receptor subfamily 5 group A member 2 (O00482 whole entry): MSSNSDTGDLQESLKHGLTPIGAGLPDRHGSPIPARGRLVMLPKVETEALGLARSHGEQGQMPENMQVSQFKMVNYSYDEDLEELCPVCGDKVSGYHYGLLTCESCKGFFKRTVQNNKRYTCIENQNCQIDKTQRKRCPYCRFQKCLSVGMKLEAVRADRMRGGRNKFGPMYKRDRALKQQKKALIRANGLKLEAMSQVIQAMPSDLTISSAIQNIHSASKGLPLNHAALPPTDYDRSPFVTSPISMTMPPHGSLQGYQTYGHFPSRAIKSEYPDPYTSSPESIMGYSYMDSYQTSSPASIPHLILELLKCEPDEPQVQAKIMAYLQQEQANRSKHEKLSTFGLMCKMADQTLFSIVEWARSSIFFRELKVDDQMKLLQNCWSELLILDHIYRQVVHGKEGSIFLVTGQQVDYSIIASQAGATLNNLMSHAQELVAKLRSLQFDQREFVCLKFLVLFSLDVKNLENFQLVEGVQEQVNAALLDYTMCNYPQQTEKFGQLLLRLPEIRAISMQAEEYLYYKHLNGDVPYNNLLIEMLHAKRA
Chain of Steroidogenic factor 1 (Q13285 whole entry): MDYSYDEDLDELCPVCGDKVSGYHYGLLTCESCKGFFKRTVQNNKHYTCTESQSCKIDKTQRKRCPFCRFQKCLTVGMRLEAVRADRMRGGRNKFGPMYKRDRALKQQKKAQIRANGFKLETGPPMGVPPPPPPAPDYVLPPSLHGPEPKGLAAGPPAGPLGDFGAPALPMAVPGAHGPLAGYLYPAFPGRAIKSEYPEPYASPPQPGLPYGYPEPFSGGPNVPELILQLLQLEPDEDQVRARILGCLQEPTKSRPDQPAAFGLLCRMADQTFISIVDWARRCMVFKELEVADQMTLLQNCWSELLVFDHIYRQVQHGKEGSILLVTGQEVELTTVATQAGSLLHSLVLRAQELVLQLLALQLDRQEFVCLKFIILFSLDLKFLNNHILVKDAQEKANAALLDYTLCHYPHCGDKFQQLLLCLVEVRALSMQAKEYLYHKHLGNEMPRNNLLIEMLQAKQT

Consider `COc1cc(NC(=O)N2CCNC2=O)cc(C(=O)Nc2cccc(C(F)(F)F)c2)c1`, for which the IC50 is > 89.2 µM (inactive) with HEK293 [1] and > 80 µM (inactive) in assay [7]. For the same compound, the EC50 in assay [2] is 9.79 µM (active); in [3] it was 6.31 µM (active); at Insulin-degrading enzyme [4] it was > 54.7 µM (inactive); in the assay with HEK293 [5], > 54.7 µM (inactive); at Insulin-degrading enzyme [6] it was > 54.7 µM (inactive).
For `CN(C)CCCNc1nc(-c2ccc(Cl)cc2)nc2ccccc12`, the AC50 in assay [8] is 22.5 µM (active).
As to `O=C(c1ccc([N+](=O)[O-])cc1)N(Cc1ccccc1)Cc1ccccc1`, the IC50 in assay [9] is 8.56 µM (active); in [10] it was > 20 µM (inactive). Also, in assay [11], the EC50 is > 53 µM (inactive).
Consider `Nc1c(C(=O)CSc2nc3ccccc3o2)c(=O)[nH]c(=O)n1C1CC1`, for which the IC50 in the assay on HEK293 [1] is > 89.2 µM (inactive). For the same compound, the CC50 in [12] was 26.3 µM (active). The EC50 on Insulin-degrading enzyme [4], in the assay with HEK293 [5] and on Insulin-degrading enzyme [6] was > 54.7 µM (inactive) throughout.
For the compound `C[C@@H]1CN([C@H](C)CO)C(=O)Cc2cc(NC(=O)C3CCCCC3)ccc2O[C@@H]1CN(C)Cc1ccc(Cl)c(Cl)c1`, in [13], the AC50 was 2.15 µM (active).
Turning to `O=C(c1ccco1)N1N=C(c2cccs2)CC1c1ccccc1O` (stereo unspecified), the IC50 in [9] was 6.11 µM (active); in assay [10], 12.8 µM (active). Further, the EC50 in assay [11] is > 53 µM (inactive).
Take `COc1cc(OC)cc(C(=O)N[C@H](C(=O)OCC(=O)Nc2ccc3c(c2)OCO3)C(C)C)c1`: the figures for the IC50 (at Steroidogenic factor 1; in assay [14]; in assay [15]) were 5.72 µM (active), 4.71 µM (active) and 35.9 µM (inactive), respectively.
With `NC(CO)c1cn([C@@H](CCC(=O)O)C(=O)N2CCNCC2)nn1` (stereo partly specified), the IC50 in the assay with HEK293 [1] was > 89.2 µM (inactive). For the same compound, the EC50 was > 54.7 µM (inactive) on Insulin-degrading enzyme [4], > 55.9 µM (inactive) in the assay with HEK293 [5] and > 54.7 µM (inactive) at Insulin-degrading enzyme [6].
In the case of `O=C(Nc1c(-c2ccccc2)n[nH]c1O)c1cccc(C(F)(F)F)c1`, the IC50 in assay [16] is 87.3 µM (inactive); in [17], 65.3 µM (inactive).
For `C[C@H](CO)N1C[C@H](C)[C@H](CN(C)Cc2ccc(-c3ccccc3)cc2)Oc2ccc(NC(=O)Cc3cn(C)c4ccccc34)cc2C1=O`, the AC50 in [13] was 15 µM (active).
With `COc1cc2nc3c(O)n(CCN(C(C)C)C(C)C)cnc-3c2cc1OC`, in [8], the half-maximal activity concentration (AC50) was 47.7 µM (active).
Regarding `Cc1ccc(O)c(NC(=S)NC(=O)COc2ccc(Br)cc2)c1`, in the assay with HEK293 [1], the IC50 is 10.7 µM (inactive). Moreover, the EC50 at Insulin-degrading enzyme [4] was > 54.7 µM (inactive); with HEK293 [5], > 55.9 µM (inactive); in assay [11], 7 µM (active); at Insulin-degrading enzyme [6] it was > 54.7 µM (inactive).
In the case of `COc1ccc(CCNC(=O)COC(=O)Cc2ccccc2[N+](=O)[O-])cc1`, the values for the IC50 (on Steroidogenic factor 1; in [14]; in [15]) were 2.36 µM (active), 35.9 µM (inactive) and 35.9 µM (inactive), respectively.
For `COc1ccccc1NC(=O)c1ccc(NC(=O)CSc2nnnn2C)cc1`, the IC50 at Steroidogenic factor 1 was 0.77 µM (active); in assay [14], 0.437 µM (active); in assay [15], 35.9 µM (inactive). In [18], the CC50 was > 40 µM (active).
With `O=C(COC(=O)c1ccc([N+](=O)[O-])o1)NC12CC3CC(CC(C3)C1)C2`, the IC50 was 5.13 µM (active) in [16] and 6.85 µM (active) in assay [17].
For `C[C@@H]1CN([C@H](C)CO)C(=O)Cc2cc(N(C)C)ccc2O[C@H]1CN(C)Cc1ccc(C(=O)Nc2ccccc2N)cc1`, in assay [13], the AC50 was 3.46 µM (active).

The values above are taken from ChEMBL document CHEMBL1201862, “PubChem BioAssay data set” (2004).
